Laboratory results as given in US8541428B2, “Heterocyclic derivatives, pharmaceutical compositions and methods of use thereof” (Technion Research and Development Foundation Ltd., priority 2006, dated 2013).
Each block holds one molecule with its values, some of them ahead of it.

Experiments:
[1] = target: peripheral-type benzodiazepine receptor (PBR) (Homo sapiens, UniProt P30536); test: PBR binding assay, [3H]PK 11195 radio-assay (competition with radioactive standard ligand); settings: for binding to PBR (in words): [3H]PK 11195 radio-assay
peripheral-type benzodiazepine receptor (PBR), sequence (P30536 whole entry, species assumed): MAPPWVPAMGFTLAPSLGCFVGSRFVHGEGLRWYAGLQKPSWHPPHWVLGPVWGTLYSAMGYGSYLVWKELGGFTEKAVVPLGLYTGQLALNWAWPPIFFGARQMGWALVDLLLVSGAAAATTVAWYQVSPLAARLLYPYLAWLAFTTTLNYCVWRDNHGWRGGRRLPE
Protocol: Briefly, the assay utilizes radioactive standard ligand [^3H] PK 11195 (1-(2-chlorophenyl)-N-methyl-N-(1-methyl-propyl)-3-isoquinolinecarboxamide), and measures the ability of the compounds of the invention to compete with standard ligand in binding to PBR. Total radioactive binding was determined by measuring the radioactivity of the radioactive ligand-receptor complex, obtained in the reaction of radioactive standard with the PBR. Radioactive standard and the examined ligand were added to the PBR and after some incubation time the radioactivity of the resulting ligand-receptor complexes was measured with the help of […]. This radioactivity indicates the binding of the radioactive standard to PBR. […] For an easier interpretation of our results, the binding was expressed in percentage of radioactive ligand binding. The lower the number, the better the binding of the examined ligand to PBR. Western blot analysis can be used to see which components of the PBR-complex may be important for the efficacy of the new PBR ligands, according to methods described previously [Levin E et al. 2005; Kuznetsov V et al. 2005; Weisinger G et al. Biochemistiy 2004].

[2] = modulation of PBR composition, seizures; cited from earlier work
PBR-complex = PBR-complex (Homo sapiens, UniProt P30536); settings: displacement of [3H]Ro5 4864; cited from earlier work
PBR-complex, sequence (P30536 whole entry, one chain of several): as the sequence (P30536 whole entry, species assumed) above

C6 glioma cell line [3] = test: Apoptotic levels in C6 glioma cell line (control and IBP knockdown); format: cell-based, rat; settings: for increase of apoptotic levels: control cells; for apoptotic effects in IBP knockdown cell line: IBP knockdown cells, FGIN-1-27 10^-5M, ErPC 10^-4M
Description: Cell death, including apoptosis. The Cell Death Detection ELISA^PLUS kit of Roche Molecular Biochemicals (Mannheim, Germany) was used to determine the effects on apoptosis by the new PBR ligands, in particular the one of the present description, according to methods described previously [Veenman L et al. 2005; Levin E et al. 2005]. Also, the Trypan blue method was applied in order to determine the cell viability after application of the new PBR ligands, according to methods described previously [Veenman L et al. 2005; Levin E et al. 2005]. Cell death including apoptosis of neural cells is induced by glutamate and Abeta, according to methods described previously [Michal Gaitner, M. Sc. thesis, 2004].

C6 glioma cell line [4] = test: Mitochondrial membrane potential decrease in C6 glioma cell line (control and IBP knockdown); format: cell-based, rat; settings: 10^-4M
Protocol: Mitochondrial membrane potential and mitochondrial volume measurement. To see whether the new PBR ligand is able to prevent opening of the mitochondrial permeability transition pore to prevent apoptosis changes in the mitochondrial volume and potential are measured, as described previously [Maaser K, Br J Cancer 2001;85:1771-1780].

SMILES: CN(C)C(=O)Oc1nc(-c2ccccc2)nc2ccccc12 [Compound 9a, Dimethyl-carbamic acid 2-phenyl-quinazolin-4-yl ester]
- binding to PBR (in words) [1]: good binding properties

SMILES: CCC(C)N(C)C(=O)c1cc2ccccc2c(-c2ccccc2Cl)n1 (centres unmarked) [PK 11195, 1-(2-chlorophenyl)-N-methyl-N-(1-methyl-propyl)-3-isoquinolinecarboxamide]
- effect on consequences of kainic acid injections [2]: prevented the effects of kainic acid injections

SMILES: CCCCCCN(CCCCCC)C(=O)Cc1c(-c2ccc(F)cc2)[nH]c2ccccc12 [FGIN-1-27]
- Ki (PBR-complex): 4.4 ± 0.1 nM
- increase of apoptotic levels (C6 glioma cell line [3]; 10^-5M): 2 fold
- apoptotic effects in IBP knockdown cell line (C6 glioma cell line [3]): completely abolished

SMILES: CCCCCCCC/C=C\CCCCCCCCCCCCOP(=O)([O-])OCC[N+](C)(C)C [ErPC]
- effects on mitochondrial potential in IBP knockdown cell line (C6 glioma cell line [4]; IBP knockdown cell line (as 3.7)): completely abolished
- enhancement of mitochondrial membrane potential decrease (C6 glioma cell line [4]; control cells vs vehicle treated control cells): 6 fold
- increase of apoptotic levels (C6 glioma cell line [3]; 10^-4M): 7-8 fold
- apoptotic effects in IBP knockdown cell line (C6 glioma cell line [3]): completely abolished

SMILES: CCN(CC)C(=O)C(C)(C)c1nc2ccccc2nc1-c1ccccc1 [Compound 5, N,N-Diethyl-2-(3-phenyl-quinoxalin-2-yl)-isobutyramide]
- binding to PBR (in words) [1]: best binding

Second part, the molecule after the results:

- binding to PBR (in words) [1]: good binding properties
SMILES: CC(C)N(C(=O)Cc1nc(-c2ccccc2)nc2ccccc12)C(C)C [Compound 12c, N,N-Diisopropyl-2-(2-phenyl-quinazolin-4-yl)-acetamide]

- binding to PBR (in words) [1]: good binding properties
SMILES: CC(C)N(C(=O)n1c(-c2ccccc2)nc2ccccc2c1=O)C(C)C [Compound 10b, 4-Oxo-2-phenyl-4H-quinazoline-3-carboxylic acid diisopropylamide]

- radioactive standard remained bound to PBR (percentage of radioactive ligand binding) ([1]; [3H]PK 11195, the lower the number, the better the binding): 14%
- binding to PBR (in words) [1]: good binding properties
SMILES: CCN(CC)C(=O)Cc1nc(-c2ccccc2)nc2ccccc12 [Compound 12b, N,N-Diethyl-2-(2-phenyl-quinazolin-4-yl)-acetamide]
